Test results: US8883782B2, “Spiro-tetracyclic ring compounds as beta-secretase modulators and methods of use” (Amgen Inc., priority 2010, dated 2014)
Read-outs that look alike come from different tables or passages of the source.

Experiments:
[1] = tested on: Aβ40 in conditioned medium of cells stably expressing Amyloid Precursor Protein (APP); experiment: In vitro BACE cell-based assay (Aβ40 in conditioned medium, sandwich ELISA); conditions: Homo sapiens
How it was run: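 Quantification relied on pAb40/6E10 sandwich ELISA with Europium fluorescence counts, and IC50 was fitted versus concentration.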

[2] = target: Beta Secretase enzyme (BACE) (Homo sapiens, UniProt P56817); experiment: In vitro enzymatic BACE FRET (fluorescence resonance energy transfer) assay; assay type: biochemical
How it was run: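 Acetate buffer (0.05 M, pH 4.2), 10% DMSO final, 100 uM nonionic detergent genapol. Substrate addition (50 nM FRET peptide) initiates; one-hour incubation; Tris raises pH to neutrality before fluorescence measurement.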

[3] = HEK293, average IC50, read-out: HEK cell assay
[4] = average IC50, enzyme assay, read-out: BACE 1 FRET assay
[5] = HEK293, average IC50, HEK cells, read-out: HEK cell assay

Chain of Beta Secretase enzyme (BACE) (P56817 46-501, species assumed): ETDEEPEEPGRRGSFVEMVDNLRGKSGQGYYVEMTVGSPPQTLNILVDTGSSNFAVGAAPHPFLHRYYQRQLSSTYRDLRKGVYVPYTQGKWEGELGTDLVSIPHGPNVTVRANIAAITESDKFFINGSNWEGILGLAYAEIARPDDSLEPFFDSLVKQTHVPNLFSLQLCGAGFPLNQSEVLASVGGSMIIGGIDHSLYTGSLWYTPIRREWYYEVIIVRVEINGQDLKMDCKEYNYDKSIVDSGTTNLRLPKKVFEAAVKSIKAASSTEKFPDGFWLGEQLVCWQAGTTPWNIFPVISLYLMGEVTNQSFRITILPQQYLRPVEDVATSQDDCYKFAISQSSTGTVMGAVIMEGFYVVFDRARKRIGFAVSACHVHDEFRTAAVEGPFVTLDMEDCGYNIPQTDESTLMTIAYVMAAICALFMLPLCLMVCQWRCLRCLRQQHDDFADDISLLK

| IC50 [2, 4] | IC50 [1, 5] | SMILES | further results |
| --- | --- | --- | --- |
| 0.0026 µM | – | NC1=N[C@@]2(CO1)c1cc(-c3cncc(F)c3)ccc1Oc1cnc(-c3ccnc(F)c3)cc12 [Example 376, (5S)-3-(2-fluoro-4-pyridinyl)-7-(5-fluoro-3-pyridinyl)spiro[chromeno[2,3-c]pyridine-5,4′-[1,3]oxazol]-2′-amine] | IC50 [1, 3]: 0.033 µM |
| 0.0059 µM | – | CC1(C)C[C@H](c2cc3c(cn2)Oc2ccc(-c4cccnc4F)cc2[C@@]32COC(N)=N2)CCO1 [Example 377, (5S)-3-((4R)-2,2-dimethyltetrahydro-2H-pyran-4-yl)-7-(2-fluoro-3-pyridinyl)spiro[chromeno[2,3-c]pyridine-5,4′-[1,3]oxazol]-2′-amine] | IC50 [1, 3]: 0.0294 µM |
| 0.0043 µM | – | CC1(C)C[C@@H](c2cc3c(cn2)Oc2ccc(-c4cccnc4F)cc2[C@@]32COC(N)=N2)CCO1 [Example 378, (5S)-3-((4S)-2,2-dimethyltetrahydro-2H-pyran-4-yl)-7-(2-fluoro-3-pyridinyl)spiro[chromeno[2,3-c]pyridine-5,4′-[1,3]oxazol]-2′-amine] | IC50 [1, 3]: 0.0264 µM |
| 0.0232 µM | – | CC1(C)C[C@@H](c2cc3c(cn2)Oc2ccc(-c4ccc(F)nc4)cc2[C@@]32COC(N)=N2)CCO1 [Example 379, (5S)-3-((4S)-2,2-dimethyltetrahydro-2H-pyran-4-yl)-7-(6-fluoro-3-pyridinyl)spiro[chromeno[2,3-c]pyridine-5,4′-[1,3]oxazol]-2′-amine] | IC50 [1, 3]: 0.176 µM |
| 0.0302 µM | – | CC1(C)C[C@@H](c2cc3c(cn2)Oc2ccc(-c4cncc(F)c4)cc2[C@@]32COC(N)=N2)CCO1 [Example 380, (5S)-3-((4S)-2,2-dimethyltetrahydro-2H-pyran-4-yl)-7-(5-fluoro-3-pyridinyl)spiro[chromeno[2,3-c]pyridine-5,4′-[1,3]oxazol]-2′-amine] | IC50 [1, 3]: 0.101 µM |
| 0.0073 µM | – | NC1=N[C@@]2(CO1)c1cc(-c3cncc(F)c3)ccc1Oc1cnc([C@@H]3CCCCO3)cc12 [Example 381, (5S)-7-(5-fluoro-3-pyridinyl)-3-((2S)-tetrahydro-2H-pyran-2-yl)spiro[chromeno[2,3-c]pyridine-5,4′-[1,3]oxazol]-2′-amine] | IC50 [1, 3]: 0.0626 µM |
| – | – | NC1=N[C@@]2(CO1)c1cc(-c3cccnc3F)ccc1Oc1cnc([C@@H]3CCCOC3)cc12 [Example 382, (5S)-7-(2-fluoro-3-pyridinyl)-3-((3S)-tetrahydro-2H-pyran-3-yl)spiro[chromeno[2,3-c]pyridine-5,4′-[1,3]oxazol]-2′-amine] | IC50 ([1]; HEK293, read-out: HEK cell assay (uM)): 0.123 µM; IC50 ([2]; BACE 1 FRET assay (uM), average IC50, enzyme assay): 0.0113 µM |
| 0.622 µM | 2.56 µM | CC(C)(C)/C=C/c1ccc2c(c1)[C@]1(COC(N)=N1)c1cc(Cl)ncc1O2 [Example 383, (5R)-3-chloro-7-((1E)-3,3-dimethyl-1-buten-1-yl)spiro[chromeno[2,3-c]pyridine-5,4′-[1,3]oxazol]-2′-amine] | – |
| 0.004 µM | 0.084 µM | CC(C)(C)/C=C/c1ccc2c(c1)[C@]1(COC(N)=N1)c1cc(-c3cncnc3)ncc1O2 [Example 384, (5R)-7-((1E)-3,3-dimethyl-1-buten-1-yl)-3-(5-pyrimidinyl)spiro[chromeno[2,3-c]pyridine-5,4′-[1,3]oxazol]-2′-amine] | – |
| 0.0004 µM | 0.0111 µM | NC1=N[C@@]2(CO1)c1cc(-c3cccnc3F)ccc1Oc1cnc(C3=CCCCC3)cc12 [Example 386, (5S)-3-(1-cyclohexen-1-yl)-7-(2-fluoro-3-pyridinyl)spiro[chromeno[2,3-c]pyridine-5,4′-[1,3]oxazol]-2′-amine] | – |
| 0.672 µM | 10 µM | N#Cc1ncccc1-c1ccc2c(c1)[C@@]1(COC(N)=N1)c1cc(Cl)ncc1O2 [Example 387, 3-((5S)-2′-amino-3-chlorospiro[chromeno[2,3-c]pyridine-5,4′-[1,3]oxazol]-7-yl)-2-pyridinecarbonitrile] | – |
| 0.0029 µM | 0.107 µM | NC1=N[C@@]2(CO1)c1cc(-c3cccnc3F)ccc1Oc1cnc(C3CCCCC3)cc12 [Example 388, (5S)-3-cyclohexyl-7-(2-fluoro-3-pyridinyl)spiro[chromeno[2,3-c]pyridine-5,4′-[1,3]oxazol]-2′-amine] | – |
| 0.0111 µM | 0.0684 µM | N#Cc1ncccc1-c1ccc2c(c1)[C@@]1(COC(N)=N1)c1cc(C3=CCOCC3)ncc1O2 [Example 389, 3-((5S)-2′-amino-3-(3,6-dihydro-2H-pyran-4-yl)spiro[chromeno[2,3-c]pyridine-5,4′-[1,3]oxazol]-7-yl)-2-pyridinecarbonitrile] | – |
| 0.102 µM | 0.64 µM | NC1=N[C@@]2(CO1)c1cc(-c3cnccc3F)ccc1Oc1cnc(Cl)cc12 [Example 390, (5S)-3-chloro-7-(4-fluoro-3-pyridinyl)spiro[chromeno[2,3-c]pyridine-5,4′-[1,3]oxazol]-2′-amine] | – |
| – | – | NC1=N[C@@]2(CO1)c1cc(-c3cnccc3F)ccc1Oc1cnc(C3=CCOCC3)cc12 [Example 391, (5S)-3-(3,6-dihydro-2H-pyran-4-yl)-7-(4-fluoro-3-pyridinyl)spiro[chromeno[2,3-c]pyridine-5,4′-[1,3]oxazol]-2′-amine] | IC50 ([1]; HEK293, read-out: HEK cell assay (uM), average IC50, HEK cells): 0.0058 µM; IC50 ([2]; BACE 1 FRET assay (uM)): 0.0007 µM |
| 5.54 µM | 10 µM | NC1=N[C@]2(CO1)c1cc(-c3ccnc(F)c3)ccc1Oc1cnc(Cl)cc12 [Example 392, (5R)-3-chloro-7-(2-fluoro-4-pyridinyl)spiro[chromeno[2,3-c]pyridine-5,4′-[1,3]oxazol]-2′-amine] | – |
| 0.0633 µM | 0.224 µM | NC1=N[C@]2(CO1)c1cc(-c3ccnc(F)c3)ccc1Oc1cnc(-c3cncnc3)cc12 [Example 393, (5R)-7-(2-fluoro-4-pyridinyl)-3-(5-pyrimidinyl)spiro[chromeno[2,3-c]pyridine-5,4′-[1,3]oxazol]-2′-amine] | – |
| 0.0094 µM | 0.138 µM | NC1=N[C@@]2(CO1)c1cc(-c3ccc(F)cc3)ccc1Oc1cnc(C3=CCOCC3)cc12 [Example 394, (5S)-3-(3,6-dihydro-2H-pyran-4-yl)-7-(4-fluorophenyl)spiro[chromeno[2,3-c]pyridine-5,4′-[1,3]oxazol]-2′-amine] | – |
| 0.0237 µM | 0.335 µM | NC1=N[C@@]2(CO1)c1cc(-c3ccc(F)cc3)ccc1Oc1cnc(-c3ccnc(F)c3)cc12 [Example 395, (5S)-7-(4-fluorophenyl)-3-(2-fluoro-4-pyridinyl)spiro[chromeno[2,3-c]pyridine-5,4′-[1,3]oxazol]-2′-amine] | – |
| 0.136 µM | 1.08 µM | NC1=N[C@@]2(CO1)c1cc(-c3ccc(F)cc3)ccc1Oc1cnc(-c3cncnc3)cc12 [Example 396, (5S)-7-(4-fluorophenyl)-3-(5-pyrimidinyl)spiro[chromeno[2,3-c]pyridine-5,4′-[1,3]oxazol]-2′-amine] | – |
| 0.0044 µM | 0.0449 µM | NC1=N[C@@]2(CO1)c1cc(-c3cccnc3F)ccc1Oc1cnc(/C=C/C3CC3)cc12 [Example 401, (5S)-3-((E)-2-cyclopropylethenyl)-7-(2-fluoro-3-pyridinyl)spiro[chromeno[2,3-c]pyridine-5,4′-[1,3]oxazol]-2′-amine] | – |
| 0.043 µM | 0.111 µM | CN(C)c1cc2c(cn1)Oc1ccc(-c3cccnc3)cc1[C@@]21COC(N)=N1 [Example 403, (5S)-N~3~,N~3~-dimethyl-7-(3-pyridinyl)spiro[chromeno[2,3-c]pyridine-5,4′-[1,3]oxazole]-2′,3-diamine] | – |
| 0.0313 µM | 0.163 µM | NC1=N[C@@]2(CO1)c1cc(-c3cccnc3)ccc1Oc1cnc(NCC(F)(F)F)cc12 [Example 404, (5S)-7-(3-pyridinyl)-N~3~-(2,2,2-trifluoroethyl)spiro[chromeno[2,3-c]pyridine-5,4′-[1,3]oxazole]-2′,3-diamine] | – |
| 0.0014 µM | 0.0111 µM | CC1(C#Cc2cc3c(cn2)Oc2ccc(-c4cccnc4F)cc2[C@@]32COC(N)=N2)COC1 [Example 405, (5S)-7-(2-fluoro-3-pyridinyl)-3-((3-methyl-3-oxetanyl)ethynyl)spiro[chromeno[2,3-c]pyridine-5,4′-[1,3]oxazol]-2′-amine] | – |
| 0.183 µM | 0.712 µM | COc1ncc(-c2ccc3c(c2)[C@@]2(COC(N)=N2)c2cc(/C=C/C(C)(C)C)ncc2O3)cn1 [Example 406, (5S)-3-((1E)-3,3-dimethyl-1-buten-1-yl)-7-(2-methoxy-5-pyrimidinyl)spiro[chromeno[2,3-c]pyridine-5,4′-[1,3]oxazol]-2′-amine] | – |
| 0.0053 µM | 0.158 µM | COc1ncc(F)cc1-c1ccc2c(c1)[C@@]1(COC(N)=N1)c1cc(/C=C/C(C)(C)C)ncc1O2 [Example 407, (5S)-3-((1E)-3,3-dimethyl-1-buten-1-yl)-7-(5-fluoro-2-methoxy-3-pyridinyl)spiro[chromeno[2,3-c]pyridine-5,4′-[1,3]oxazol]-2′-amine] | – |
| 0.0201 µM | 0.311 µM | COc1ncccc1-c1ccc2c(c1)[C@@]1(COC(N)=N1)c1cc(/C=C/C(C)(C)C)ncc1O2 [Example 408, (5S)-3-((1E)-3,3-dimethyl-1-buten-1-yl)-7-(2-methoxy-3-pyridinyl)spiro[chromeno[2,3-c]pyridine-5,4′-[1,3]oxazol]-2′-amine] | – |
| 0.0066 µM | 0.0178 µM | COC(C)(C)CNc1cc2c(cn1)Oc1ccc(-c3cccnc3)cc1[C@@]21COC(N)=N1 [Example 409, (5S)-N~3~-(2-methoxy-2-methylpropyl)-7-(3-pyridinyl)spiro[chromeno[2,3-c]pyridine-5,4′-[1,3]oxazole]-2′,3-diamine] | – |
